Values of other authors, collected in patent publication US9512385B2, “Disinfectant solution for nonionic soft contact lenses” (MENICON CO., LTD., priority 2012, dated 2016).

Details: background art statement

For polylysine, the “IC50 value in cytotoxicity test relative to PHMB” value is listed as “about several hundredth part of that of PHMB”.
